The values below come from patent US10588608B2, “Sampling systems and related materials and methods” (Progenity Inc., priority 2016, dated 2020).

Where two headings read alike, the source gives them in different places.

One assay has as its system bacterial cells. The conditions noted are these: preservative with TENT, PCR or plating, FIG. 59A/59B.
In a further assay the test system is bacteria. Put plainly: Bactericidal preservatives added to bacteria, cell counts by flow cytometry or cell plating. It is filed as cell-based. The conditions noted are these: cell counts over 3 days, FIG. 60. On the technique in general: A flow cytometer gives signals particle by particle.
[1] abbreviates: high concentration culture, 4.5×10^6 cells.
The mark [2] stands for this setting: low concentration culture, 8.6×10^4 cells.

Turning to `C[CH2][Hg][S]c1ccccc1C(=O)[O-].[Na+]` [thimerosal], the viability of bacteria entry with bacterial cells (setting [1]) and in the assay with bacterial cells (setting [2]) was “reduce the viability of bacteria” throughout. For the same compound, the “viability of bacteria over time” value in the assay on bacteria is recorded as “reduced the viability of bacteria”.

Take `OCCOc1ccccc1` [2-phenoxyethanol]: the viability of bacteria entry with bacterial cells (setting [1]) and in the assay with bacterial cells (setting [2]) was “reduce the viability of bacteria” throughout.

Turning to `C/C=C/C=C/C(=O)O` [sorbic acid], the viability of bacteria result with bacterial cells (setting [1]) and with bacterial cells (setting [2]) was “reduce the viability of bacteria” each time.

For the compound `O=C(NCO)N(CO)C1(CO)C(=O)NC(=O)N1CO` (centres unmarked) [diazolidinyl urea], the “viability of bacteria over time” value in the assay with bacteria is “reduced the viability of bacteria”.
